Like-named read-outs stand apart in the source and are kept apart here.
Key:
[1] = rat, i.v.; for % injected dose in heart, 1 min / % injected dose in heart, 2 h: preliminary studies; for Heart/Blood / Heart/Liver / Heart/Lungs: ratio
How it was run: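 Male Sprague-Dawley rats under ether anesthesia received 1 to 3 μCi of no-carrier-added Ga-67 complex as a femoral-vein bolus. Animals were killed at set times post-injection; organs weighed and counted. Values given as % injected dose per gram and per organ.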

[2] = Octanol/water partition coefficient of radiolabeled gallium complexes; assay type: physicochemical; details: 1-octanol / isotonic Tris buffer pH 7.0
Description: Octanol/water partition coefficients were measured by vortex mixing 1 mL of 1-octanol and 1 mL of isotonic Tris buffer (pH 7.0) with a 1-5 μL sample of the radiolabeled gallium complex. Following centrifugation at >1200 g for 5 minutes, the octanol and aqueous phases were sampled and counted in an automatic well counter.

## ^67 GaL^+ L = [(4,6-MeO2 Sal)2 DM-BAPEN, ^67 GaL^+ L = [bis(4,6-dimethoxysalicylaldimino)-N,N'-bis(2,2'-dimethyl-3-aminopropyl)-ethylenediamine]]
[1]; 1 min
  % Injected Dose per Gram Tissue, Blood: 1.30 ± 0.45 % Injected Dose per Gram Tissu
  % Injected Dose per Gram Tissue, Brain: 0.06 ± 0.01 % Injected Dose per Gram Tissu
  % Injected Dose per Gram Tissue, Heart: 1.31 ± 0.17 % Injected Dose per Gram Tissu
  % Injected Dose per Gram Tissue, Kidney (one): 10.62 ± 0.94 % Injected Dose per Gram Tissu
  % Injected Dose per Gram Tissue, Liver: 5.82 ± 0.93 % Injected Dose per Gram Tissu
  % Injected Dose per Gram Tissue, Lungs: 1.24 ± 0.20 % Injected Dose per Gram Tissu
  % Injected Dose per Gram Tissue, Spleen: 1.59 ± 0.57 % Injected Dose per Gram Tissu
  % Injected Dose per Organ, Blood: 18.76 ± 6.91 % Injected Dose per Organ
  % Injected Dose per Organ, Brain: 0.10 ± 0.02 % Injected Dose per Organ
  % Injected Dose per Organ, Heart: 1.03 ± 0.17 % Injected Dose per Organ
  % Injected Dose per Organ, Kidney (one): 8.33 ± 0.80 % Injected Dose per Organ
  % Injected Dose per Organ, Liver: 50.62 ± 5.72 % Injected Dose per Organ
  % Injected Dose per Organ, Lungs: 1.63 ± 0.47 % Injected Dose per Organ
  % Injected Dose per Organ, Spleen: 1.07 ± 0.35 % Injected Dose per Organ
  % injected dose in heart, 1 min: 1.03 ± 0.17 % injected dose
  Heart/Blood: 1.11 ± 0.40
  Heart/Liver: 0.23 ± 0.06
  Heart/Lungs: 1.07 ± 0.12
[1]; 15 min
  % Injected Dose per Gram Tissue, Blood: 0.13 ± 0.01 % Injected Dose per Gram Tissu
  % Injected Dose per Gram Tissue, Brain: 0.03 ± 0.01 % Injected Dose per Gram Tissu
  % Injected Dose per Gram Tissue, Heart: 1.23 ± 0.07 % Injected Dose per Gram Tissu
  % Injected Dose per Gram Tissue, Kidney (one): 10.49 ± 0.92 % Injected Dose per Gram Tissu
  % Injected Dose per Gram Tissue, Liver: 3.92 ± 0.20 % Injected Dose per Gram Tissu
  % Injected Dose per Gram Tissue, Lungs: 0.63 ± 0.03 % Injected Dose per Gram Tissu
  % Injected Dose per Gram Tissue, Spleen: 1.96 ± 0.32 % Injected Dose per Gram Tissu
  % Injected Dose per Organ, Blood: 1.97 ± 0.15 % Injected Dose per Organ
  % Injected Dose per Organ, Brain: 0.04 ± 0.01 % Injected Dose per Organ
  % Injected Dose per Organ, Heart: 0.93 ± 0.04 % Injected Dose per Organ
  % Injected Dose per Organ, Kidney (one): 8.77 ± 0.60 % Injected Dose per Organ
  % Injected Dose per Organ, Liver: 36.83 ± 2.91 % Injected Dose per Organ
  % Injected Dose per Organ, Lungs: 0.75 ± 0.05 % Injected Dose per Organ
  % Injected Dose per Organ, Spleen: 1.25 ± 0.20 % Injected Dose per Organ
  Heart/Blood: 9.65 ± 0.53
  Heart/Liver: 0.32 ± 0.02
  Heart/Lungs: 1.96 ± 0.20
[1]; 120 min
  % Injected Dose per Gram Tissue, Blood: 0.03 ± 0.01 % Injected Dose per Gram Tissu
  % Injected Dose per Gram Tissue, Brain: 0.02 ± 0.01 % Injected Dose per Gram Tissu
  % Injected Dose per Gram Tissue, Heart: 1.36 ± 0.09 % Injected Dose per Gram Tissu
  % Injected Dose per Gram Tissue, Kidney (one): 6.86 ± 0.54 % Injected Dose per Gram Tissu
  % Injected Dose per Gram Tissue, Liver: 0.42 ± 0.02 % Injected Dose per Gram Tissu
  % Injected Dose per Gram Tissue, Lungs: 0.58 ± 0.06 % Injected Dose per Gram Tissu
  % Injected Dose per Gram Tissue, Spleen: 1.59 ± 0.16 % Injected Dose per Gram Tissu
  % Injected Dose per Organ, Blood: 0.45 ± 0.03 % Injected Dose per Organ
  % Injected Dose per Organ, Brain: 0.04 ± 0.01 % Injected Dose per Organ
  % Injected Dose per Organ, Heart: 0.01 ± 0.06 % Injected Dose per Organ
  % Injected Dose per Organ, Kidney (one): 5.40 ± 0.24 % Injected Dose per Organ
  % Injected Dose per Organ, Liver: 3.91 ± 0.19 % Injected Dose per Organ
  % Injected Dose per Organ, Lungs: 0.64 ± 0.06 % Injected Dose per Organ
  % Injected Dose per Organ, Spleen: 0.97 ± 0.07 % Injected Dose per Organ
  Heart/Blood: 44.46 ± 1.63
  Heart/Liver: 3.24 ± 0.07
  Heart/Lungs: 2.34 ± 0.14
[1]
  % injected dose in heart, 2 h: 1.01 ± 0.06 % injected dose
[2]
  log P: 2.73

## ^67 GaL^+ L = [(4-deaSal)2 DM-BAPEN, ^67 GaL^+ L = [bis(diethylaminosalicylaldimino)-N,N'-bis(2,2'-dimethyl-3-aminopropyl)ethylenediamine]]
[1]; 1 min
  % Injected Dose per Gram Tissue, Blood: 1.91 ± 0.22 % Injected Dose per Gram Tissu
  % Injected Dose per Gram Tissue, Brain: 0.05 ± 0.01 % Injected Dose per Gram Tissu
  % Injected Dose per Gram Tissue, Heart: 0.85 ± 0.09 % Injected Dose per Gram Tissu
  % Injected Dose per Gram Tissue, Kidney (one): 4.85 ± 0.75 % Injected Dose per Gram Tissu
  % Injected Dose per Gram Tissue, Liver: 4.91 ± 0.36 % Injected Dose per Gram Tissu
  % Injected Dose per Gram Tissue, Lungs: 4.23 ± 0.68 % Injected Dose per Gram Tissu
  % Injected Dose per Gram Tissue, Spleen: 1.61 ± 0.44 % Injected Dose per Gram Tissu
  % Injected Dose per Organ, Blood: 30.59 ± 3.45 % Injected Dose per Organ
  % Injected Dose per Organ, Brain: 0.08 ± 0.02 % Injected Dose per Organ
  % Injected Dose per Organ, Heart: 0.66 ± 0.06 % Injected Dose per Organ
  % Injected Dose per Organ, Kidney (one): 4.25 ± 0.52 % Injected Dose per Organ
  % Injected Dose per Organ, Liver: 47.04 ± 6.53 % Injected Dose per Organ
  % Injected Dose per Organ, Lungs: 5.30 ± 0.23 % Injected Dose per Organ
  % Injected Dose per Organ, Spleen: 1.12 ± 0.34 % Injected Dose per Organ
  % injected dose in heart, 1 min: 0.66 ± 0.06 % injected dose
  Heart/Blood: 0.45 ± 0.04
  Heart/Liver: 0.17 ± 0.03
  Heart/Lungs: 0.20 ± 0.02
[1]; 15 min
  % Injected Dose per Gram Tissue, Blood: 0.30 ± 0.04 % Injected Dose per Gram Tissu
  % Injected Dose per Gram Tissue, Brain: 0.02 ± 0.01 % Injected Dose per Gram Tissu
  % Injected Dose per Gram Tissue, Heart: 0.57 ± 0.05 % Injected Dose per Gram Tissu
  % Injected Dose per Gram Tissue, Kidney (one): 5.55 ± 0.50 % Injected Dose per Gram Tissu
  % Injected Dose per Gram Tissue, Liver: 4.78 ± 1.20 % Injected Dose per Gram Tissu
  % Injected Dose per Gram Tissue, Lungs: 2.06 ± 0.21 % Injected Dose per Gram Tissu
  % Injected Dose per Gram Tissue, Spleen: 3.15 ± 0.45 % Injected Dose per Gram Tissu
  % Injected Dose per Organ, Blood: 5.08 ± 0.71 % Injected Dose per Organ
  % Injected Dose per Organ, Brain: 0.00 ± 0.00 % Injected Dose per Organ
  % Injected Dose per Organ, Heart: 0.46 ± 0.04 % Injected Dose per Organ
  % Injected Dose per Organ, Kidney (one): 4.79 ± 0.38 % Injected Dose per Organ
  % Injected Dose per Organ, Liver: 50.24 ± 11.08 % Injected Dose per Organ
  % Injected Dose per Organ, Lungs: 2.71 ± 0.22 % Injected Dose per Organ
  % Injected Dose per Organ, Spleen: 2.29 ± 0.42 % Injected Dose per Organ
  Heart/Blood: 1.94 ± 0.33
  Heart/Liver: 0.13 ± 0.04
  Heart/Lungs: 0.28 ± 0.04
[1]; 120 min
  % Injected Dose per Gram Tissue, Blood: 0.06 ± 0.01 % Injected Dose per Gram Tissu
  % Injected Dose per Gram Tissue, Brain: 0.00 ± 0.00 % Injected Dose per Gram Tissu
  % Injected Dose per Gram Tissue, Heart: 0.47 ± 0.02 % Injected Dose per Gram Tissu
  % Injected Dose per Gram Tissue, Kidney (one): 5.28 ± 0.32 % Injected Dose per Gram Tissu
  % Injected Dose per Gram Tissue, Liver: 0.96 ± 0.14 % Injected Dose per Gram Tissu
  % Injected Dose per Gram Tissue, Lungs: 1.02 ± 0.13 % Injected Dose per Gram Tissu
  % Injected Dose per Gram Tissue, Spleen: 2.89 ± 0.21 % Injected Dose per Gram Tissu
  % Injected Dose per Organ, Blood: 1.06 ± 0.20 % Injected Dose per Organ
  % Injected Dose per Organ, Brain: 0.02 ± 0.01 % Injected Dose per Organ
  % Injected Dose per Organ, Heart: 0.40 ± 0.04 % Injected Dose per Organ
  % Injected Dose per Organ, Kidney (one): 5.17 ± 0.19 % Injected Dose per Organ
  % Injected Dose per Organ, Liver: 11.06 ± 2.46 % Injected Dose per Organ
  % Injected Dose per Organ, Lungs: 1.31 ± 0.07 % Injected Dose per Organ
  % Injected Dose per Organ, Spleen: 2.09 ± 0.18 % Injected Dose per Organ
  Heart/Blood: 8.06 ± 1.62
  Heart/Liver: 0.50 ± 0.07
  Heart/Lungs: 0.46 ± 0.07
[1]
  % injected dose in heart, 2 h: 0.40 ± 0.04 % injected dose
[2]
  log P: 2.84
